Here are results for 19 compounds from patent US9365522B2, “Pyrazole amide derivative” (AMGEN INC., priority 2015, dated 2016).

The experiment addresses T1, ligand binding domain of human ROR gamma (Homo sapiens, UniProt P51449).
T1 construct: NM_001001523; expressed in transfected cells; host or cells: HEK293T
T1 sequence (P51449 247-497 isoform P51449-2): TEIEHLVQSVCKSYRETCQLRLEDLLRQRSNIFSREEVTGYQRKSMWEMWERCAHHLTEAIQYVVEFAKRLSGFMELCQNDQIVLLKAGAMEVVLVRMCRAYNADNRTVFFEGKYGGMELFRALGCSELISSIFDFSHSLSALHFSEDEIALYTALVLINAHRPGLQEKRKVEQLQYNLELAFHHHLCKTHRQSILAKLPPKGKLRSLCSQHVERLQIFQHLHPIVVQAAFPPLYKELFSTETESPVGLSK
Kind of experiment: ROR gamma reporter gene assay (GAL4-RORγ LBD luciferase, Dual-Glo). It counts as cell-based. The note with it: HEK293T cells transfected with pM-ROR gamma, 8 concentrations 3.5 nM to 10.5 μM, 24 h incubation; read-out: result (pIC50, inhibition of RORγ transcriptional activity) (converted). The method, boiled down:
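Transient GAL4-RORγ LBD (aa 247-497) / 5×UAS-luc / pRL-CMV cotransfection in HEK293T, charcoal-stripped 10% FBS. 8-pt dose, 3.5 nM–10.5 μM, 0.075% DMSO final. 24 h, 37 °C, 5% CO2. Dual-Glo firefly/renilla readout; pIC50 from curve fit.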

As for `CC1(C)[C@@H]2C[C@H](N(C[C@@H](O)c3c(F)cncc3Cl)C(=O)c3cnn([C@H]4CC[C@](C)(C(=O)O)CC4)c3C(F)(F)F)C[C@@H]21` [Example 384, trans-4-(4-((2-(3-chloro-5-fluoropyridin-4-yl)-2-hydroxyethyl)((1R,3r,5S)-6,6-dimethylbicyclo[3.1.0]hexan-3-yl)carbamoyl)-5-(trifluoromethyl)-1H-pyrazol-1-yl)-1-methylcyclohexanecarboxylic acid], the IC50 is 347000 pM.
`CC1(C)[C@@H]2C[C@H](N(CC(=O)c3c(Cl)cccc3Cl)C(=O)c3cnn([C@H]4CC[C@](C)(C(=O)O)CC4)c3C3CC3)C[C@@H]21` [Example 385, trans-4-(5-cyclopropyl-4-((2-(2,6-dichlorophenyl)-2-oxoethyl)((1R,3r,5S)-6,6-dimethylbicyclo[3.1.0]hexan-3-yl)carbamoyl)-1H-pyrazol-1-yl)-1-methylcyclohexanecarboxylic acid]: the IC50 is 18600 pM.
Consider `CC12CCC(CN(CC(=O)c3c(Cl)cncc3Cl)C(=O)c3cnn([C@H]4CC[C@](C)(C(=O)O)CC4)c3Cl)(CC1)O2` [Example 386, trans-4-(5-chloro-4-((2-(3,5-dichloropyridin-4-yl)-2-oxoethyl)-((1-methyl-7-oxabicyclo[2.2.1]heptan-4-yl)methyl)carbamoyl)pyrazol-1-yl)-1-methylcyclohexane-1-carboxylic acid], for which the IC50 is 141000 pM.
Then `Cc1cncc(Cl)c1C(=O)CN(C(=O)c1cnn([C@H]2CC[C@](C)(C(=O)O)CC2)c1C(F)(F)F)[C@H]1C[C@@H]2[C@H](C1)C2(C)C` [Example 387, trans-4-(4-((2-(3-chloro-5-methylpyridin-4-yl)-2-oxoethyl)((1R,3r,5S)-6,6-dimethylbicyclo[3.1.0]hexan-3-yl)carbamoyl)-5-{trifluoromethyl)-1H-pyrazol-1-yl)-1-methylcyclohexanecarboxylic acid], with 69200 pM.
The result for `C[C@]1(C(=O)O)CC[C@H](n2ncc(C(=O)N(CC(=O)c3c(Cl)cncc3Cl)CC3(C(F)(F)F)CC3)c2Cl)CC1` [Example 388, trans-4-(5-chloro-4-((2-(3,5-dichloropyridin-4-yl)-2-oxoethyl)-((1-(trifluoromethyl)cyclopropyl)methyl)carbamoyl)pyrazol-1-yl)-1-methylcyclohexane-1-carboxylic acid] reads 72400 pM.
As to `CC1(C)CCC(N(CC(=O)c2c(Cl)cccc2Cl)C(=O)c2cnn([C@H]3CC[C@](C)(C(=O)O)CC3)c2Cl)CC1` [Example 389, trans-4-(5-chloro-4-((2-(2,6-dichlorophenyl)-2-oxoethyl)-(4,4-dimethylcyclohexyl)carbamoyl)pyrazol-1-yl)-1-methylcyclohexane-1-carboxylic acid], the IC50 was 29500 pM.
On to `CC1(C)[C@@H]2C[C@H](N(C[C@H](O)c3ncccc3Cl)C(=O)c3cnn([C@H]4CC[C@](C)(C(=O)O)CC4)c3C(F)(F)F)C[C@@H]21` [Example 390, trans-4-(4-((2-(3-chloropyridin-2-yl)-2-hydroxyethyl)((1R,3r,5S)-6,6-dimethylbicyclo[3.1.0]hexan-3-yl)carbamoyl)-5-(trifluoromethyl)-1H-pyrazol-1-yl)-1-methylcyclohexanecarboxylic acid], for which the IC50 was 331000 pM.
As to `CC1(C)[C@@H]2C[C@H](N(C[C@@H](O)c3ncccc3Cl)C(=O)c3cnn([C@H]4CC[C@](C)(C(=O)O)CC4)c3C(F)(F)F)C[C@@H]21` [Example 391, trans-4-(4-((2-(3-chloropyridin-2-yl)-2-hydroxyethyl)((1R,3r,5S)-6,6-dimethylbicyclo[3.1.0]hexan-3-yl)carbamoyl)-5-(trifluoromethyl)-1H-pyrazol-1-yl)-1-methylcyclohexanecarboxylic acid], the IC50 was 141000 pM.
Then `Cc1[nH]c2cccc(Cl)c2c1CCN(C(=O)c1cnn([C@H]2CC[C@](C)(C(=O)O)CC2)c1C(F)(F)F)[C@H]1C[C@@H]2[C@H](C1)C2(C)C` [Example 392, trans-4-(4-((2-(4-chloro-2-methyl-1H-indol-3-yl)ethyl)((1R,3r,5S)-6,6-dimethylbicyclo[3.1.0]hexan-3-yl)carbamoyl)-5-(trifluoromethyl)-1H-pyrazol-1-yl)-1-methylcyclohexanecarboxylic acid], with 28800 pM.
On to `CC1(C)[C@@H]2C[C@H](N(C[C@@](C)(O)c3ccccc3Cl)C(=O)c3cnn([C@H]4CC[C@](C)(C(=O)O)CC4)c3C(F)(F)F)C[C@@H]21` [Example 393, trans-4-(4-((2-(2-chlorophenyl)-2-hydroxypropyl)((1R,3r,5S)-6,6-dimethylbicyclo[3.1.0]hexan-3-yl)carbamoyl)-5-(trifluoromethyl)-1H -pyrazol-1-yl)-1-methylcyclohexanecarboxylic acid], for which the IC50 is 4.57e+06 pM.
On to `CCC(F)(CC)CN(CC(=O)c1c(Cl)cncc1Cl)C(=O)c1cnn([C@H]2CC[C@](C)(C(=O)O)CC2)c1C(F)(F)F` [Example 394, trans-4-(4-((2-(3,5-dichloropyridin-4-yl)-2-oxoethyl)-(2-ethyl-2-fluorobutyl)carbamoyl)-5-(trifluoromethyl)pyrazol-1-yl)-1-methylcyclohexane-1-carboxylic acid], for which the IC50 was 20400 pM.
Regarding `CCC(F)(CC)CN(CC(=O)c1c(Cl)cncc1Cl)C(=O)c1cnn([C@H]2CC[C@](C)(C(=O)O)CC2)c1Cl` [Example 395, trans-4-(5-chloro-4-((2-(3,5-dichloropyridin-4-yl)-2-oxoethyl)-(2-ethyl-2-fluorobutyl)carbamoyl)pyrazol-1-yl)-1-methylcyclohexane-1-carboxylic acid], the IC50 was 91200 pM.
For `CC1(C)[C@@H]2C[C@H](N(C[C@H](O)c3sccc3Cl)C(=O)c3cnn([C@H]4CC[C@](C)(C(=O)O)CC4)c3C(F)(F)F)C[C@@H]21` [Example 396, trans-4-(4-((2-(3-chlorothiophen-2-yl)-2-hydroxyethyl)((1R,3r,5S)-6,6-dimethylbicyclo[3.1.0]hexan-3-yl)carbamoyl)-5-(trifluoromethyl)-1H-pyrazol-1-yl)-1-methylcyclohexanecarboxylic acid], the IC50 is 891000 pM.
With `CC1(C)[C@@H]2C[C@H](N(C[C@@H](O)c3sccc3Cl)C(=O)c3cnn([C@H]4CC[C@](C)(C(=O)O)CC4)c3C(F)(F)F)C[C@@H]21` [Example 397, trans-4-(4-((2-(3-chlorothiophen-2-yl)-2-hydroxyethyl)((1R,3r,5S)-6,6-dimethylbicyclo[3.1.0]hexan-3-yl)carbamoyl)-5-(trifluoromethyl)-1H-pyrazol-1-yl)-1-methylcyclohexanecarboxylic acid], the IC50 was 61700 pM.
Consider `CC1(C)[C@@H]2C[C@H](N(CC(=O)c3ncccc3Cl)C(=O)c3cnn([C@H]4CC[C@](C)(C(=O)O)CC4)c3C(F)(F)F)C[C@@H]21` [Example 398, trans-4-(4-((2-(3-chloropyridin-2-yl)-2-oxoethyl)((1R,3r,5S}-6,6-dimethylbicyclo[3.1.0]hexan-3-yl)carbamoyl)-5-(trifluoromethyl)-1H -pyrazol-1-yl)-1-methylcyclohexanecarboxylic acid], for which the IC50 is 676000 pM.
Regarding `CC1(C)[C@@H]2C[C@H](N(CC(O)c3c(Cl)cccc3OC(F)F)C(=O)c3cnn([C@H]4CC[C@](C)(C(=O)O)CC4)c3C(F)(F)F)C[C@@H]21` (stereo partly drawn) [Example 399, trans-4-(4-((2-(2-chloro-6-(difluoromethoxy)phenyl)-2-hydroxyethyl)((1R,3r,5S)-6,6-dimethylbicyclo[3.1.0]hexan-3-yl)carbamoyl)-5-(trifluoromethyl)-1H-pyrazol-1-yl)-1-methylcyclohexanecarboxylic acid], the IC50 was 87100 pM.
The result for `CC1(C)[C@@H]2C[C@H](N(CC(=O)c3c(Cl)cccc3OC(F)F)C(=O)c3cnn([C@H]4CC[C@](C)(C(=O)O)CC4)c3C(F)(F)F)C[C@@H]21` [Example 400, trans-4-(4-((2-(2-chloro-6-(difluoromethoxy)phenyl)-2-oxyethyl)((1R,3r,5S)-6,6-dimethylbicyclo[3.1.0]hexan-3-yl)carbamoyl)-5-(trifluoromethyl)-1H-pyrazol-1-yl)-1-methylcyclohexanecarboxylic acid] reads 28800 pM; that for `CC1(C)[C@@H]2C[C@H](N(CC(O)c3ccccn3)C(=O)c3cnn([C@H]4CC[C@](C)(C(=O)O)CC4)c3C(F)(F)F)C[C@@H]21` (stereo partly shown) [Example 401], 2.82e+06 pM.
The result for `CC1(C)[C@@H]2C[C@H](N(CC(=O)c3c(Cl)cccc3Cl)C(=O)c3cnn([C@H]4CC[C@](C)(C(=O)O)CC4)c3C3(F)CC3)C[C@@H]21` [Example 404, trans-4-(4-((2-(2,6-dichlorophenyl)-2-oxoethyl)((1R,3r,5S)-6,6-dimethylbicyclo[3.1.0]hexan-3-yl)carbamoyl)-5-(1-fluorocyclopropyl)-1H-pyrazol-1-yl)-1-methylcyclohexanecarboxylic acid] reads 22400 pM.
